According to ChEMBL document CHEMBL1137911, “Synthesis and evaluation of 4-triazolylflavans as new aromatase inhibitors” (Bioorg Med Chem Lett, 2004):

What was measured:
Aromatase [1] = molecular target: T1, Aromatase (Homo sapiens, UniProt P11511); test: Relative potency for inhibition of aromatase binding compared to aminoglutethimide
T1 sequence (P11511 whole entry): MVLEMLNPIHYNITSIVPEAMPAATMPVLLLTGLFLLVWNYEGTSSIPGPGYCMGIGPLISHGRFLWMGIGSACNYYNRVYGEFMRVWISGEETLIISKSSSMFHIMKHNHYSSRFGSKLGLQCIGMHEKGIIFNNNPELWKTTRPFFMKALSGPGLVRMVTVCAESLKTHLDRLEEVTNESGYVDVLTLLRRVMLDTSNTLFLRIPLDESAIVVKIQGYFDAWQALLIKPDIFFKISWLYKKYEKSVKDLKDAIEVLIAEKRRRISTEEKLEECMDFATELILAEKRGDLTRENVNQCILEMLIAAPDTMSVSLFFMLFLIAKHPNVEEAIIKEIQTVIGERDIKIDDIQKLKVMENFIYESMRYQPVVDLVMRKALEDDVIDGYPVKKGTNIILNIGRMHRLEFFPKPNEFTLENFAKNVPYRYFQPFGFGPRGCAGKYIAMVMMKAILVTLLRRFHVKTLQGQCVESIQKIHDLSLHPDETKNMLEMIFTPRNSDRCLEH

Aromatase [2] = molecular target: T1, Aromatase; test: In vitro inhibition of [1,2,6,7-3H]androstenedione binding to Aromatase of human placental microsomes

Q: For `Oc1ccc2c(c1)OC(c1ccccc1)CC2n1ccnc1` (stereo not drawn), which “Relative Potency” value (Aromatase [1]) is on record?
A: 126.8

Q: What about the IC50 (Aromatase [2]) of the same compound?
A: 40 nM

Q: Which “Relative Potency” value (Aromatase [1]) does the source give for `COc1ccc2c(c1)OC(c1ccccc1)CC2n1cncn1` (stereo not drawn) here?
A: 3.7

Q: What about the IC50 (Aromatase [2]) of the same compound?
A: 1400 nM

Q: Which “Relative Potency” value (Aromatase [1]) does the source give for `Oc1ccc2c(c1)OC(c1ccccc1)CC2n1cncn1` (stereo not drawn) here?
A: 12.1

Q: What about the IC50 (Aromatase [2]) of the same compound?
A: 430 nM

Q: How did the “Relative Potency” value (Aromatase [1]) turn out when `COc1ccc2c(c1)OC(c1ccccc1)CC2n1cnnc1` (stereo not drawn) was run?
A: 0.16

Q: What about the IC50 (Aromatase [2]) of the same compound?
A: 31600 nM
